For 24 compounds, IC50 results are on record in patent US9242973B2, “Chromane compounds” (CoMentis, Inc., priority 2012, dated 2016).

By IC50 is commonly meant the midpoint of a concentration-inhibition curve.

In one series the target is BACE1 (Homo sapiens (Human), UniProt P56817). Put plainly: Test Example 1: BACE1 inhibition by FRET (MCA substrate); IC50 and Ki. Conditions: read-out: Test Example 1 IC50.
Chain of BACE1 (P56817 75-416): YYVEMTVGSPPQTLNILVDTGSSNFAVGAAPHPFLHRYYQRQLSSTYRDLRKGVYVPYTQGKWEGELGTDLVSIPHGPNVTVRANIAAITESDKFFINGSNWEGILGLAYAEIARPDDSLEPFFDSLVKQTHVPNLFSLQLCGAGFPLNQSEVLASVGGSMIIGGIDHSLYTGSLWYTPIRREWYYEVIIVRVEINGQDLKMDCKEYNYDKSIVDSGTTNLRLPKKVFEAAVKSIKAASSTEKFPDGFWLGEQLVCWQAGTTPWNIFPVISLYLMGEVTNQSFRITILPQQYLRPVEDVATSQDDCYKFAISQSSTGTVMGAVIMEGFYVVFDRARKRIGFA
Turning to `CC1(C)Oc2ccc(NC(=O)c3ccc(F)cn3)cc2C2(COC(N)=N2)C12COC2` (centres unmarked) [Example 28], the IC50 turned out to be 154 nM.

With `CC1(C)Oc2ccc(NC(=O)c3ncc(Cl)cc3F)cc2C2(COC(N)=N2)C12COC2` (centres unmarked) [Example 30], the IC50 was 97.5 nM.

The same series, now with this note: read-out: Test Example 1 IC50; FRET, MCA substrate 3 μM, BACE1 65 nM, pH 4.4.
Take `CCCC1Oc2ccc(Br)cc2C2(COC(N)=N2)C12COC2` (single isomer, unassigned) [RP 11a]: the IC50 amounted to 15600 nM.

Regarding `CCCC1Oc2ccc(Br)cc2C2(COC(N)=N2)C12COC2` (single isomer, unassigned) [RP 11b], the IC50 is 17400 nM.

With `NC1=NC2(CO1)c1cc(NC(=O)c3ccc(Cl)cn3)ccc1OCC21CC1` (centres unmarked) [RP 32], the IC50 came out at 418 nM.

In another series the test system is Aβ production in SK-N-BE(2) neuroblastoma cells. Put plainly: Test Example 3: Aβ production inhibition in cell (Aβ40 ELISA, SK-N-BE(2)). Conditions: Homo sapiens, SKNBE2, 6 h, read-out: Test Example 3 IC50. Background: In an ELISA, binding on a coated surface is turned into a signal by an enzyme label.
Take `CC1(C)Oc2ccc(NC(=O)c3ccc(F)cn3)cc2C2(COC(N)=N2)C12COC2` (centres unmarked) [Example 28]: the IC50 was 19 nM.

For the compound `CC1(C)Oc2ccc(NC(=O)c3ncc(Cl)cc3F)cc2C2(COC(N)=N2)C12COC2` (centres unmarked) [Example 30], the IC50 was found to be 2.3 nM.

The series is the same for the next values; noted with them: Homo sapiens, SKNBE2, 6 h, read-out: Test Example 3 IC50, SK-N-BE(2) cells, 6 hours, Aβ40 ELISA normalized by viability.
With `NC1=NC2(CO1)c1cc(-c3cccc(F)c3)ccc1OC1(CCC1)C21COC1` (centres unmarked) [RP 125], the IC50 worked out at 580 nM.

With `NC1=NC2(CO1)c1cc(-c3cncnc3)c(F)cc1OCC21CC1` (centres unmarked) [RP 102], the IC50 was found to be 240 nM.

Consider `COc1ncc(Cl)cc1-c1ccc2c(c1)C1(COC(N)=N1)C1(COC1)C(C)(C)O2` (centres unmarked) [RP 155], for which the IC50 amounted to 630 nM.

Take `NC1=NC2(CO1)c1cc(Br)ccc1OC(CC1CC1)C21COC1` (centres unmarked) [RP 16b]: the IC50 came out at 4800 nM.

With `CC1(C)Oc2ccc(-c3ccc4nonc4c3)cc2C2(COC(N)=N2)C12COC2` (centres unmarked) [RP 178], the IC50 was found to be 810 nM.

In the case of `NC1=NC2(CO1)c1cc(-c3cncc(OCC(F)(F)C(F)F)c3)ccc1OCC21CC1` (centres unmarked) [RP 64], the IC50 is 2300 nM.

Regarding `COc1cncc(-c2ccc3c(c2)[C@@]2(COC(N)=N2)C2(COC2)[C@@H](C)O3)c1` (racemic) [RP 81], the IC50 turned out to be 510 nM.

On to `CC#Cc1ccnc(-c2ccc3c(c2)C2(COC(N)=N2)C2(COC2)CO3)c1` (centres unmarked) [RP 56], for which the IC50 is 740 nM.

Regarding `NC1=NC2(CO1)c1cc(NC(=O)c3ccc(F)cn3)ccc1OCC21CC1` (centres unmarked) [RP 31, N-(2″-aminodispiro[cyclopropane-1,3′-chromene-4′,4″-[1,3]oxazol]-6′-yl)-5-fluoropyridine-2-carboxamide], the IC50 was 61 nM.

For the compound `Cc1cncc(-c2ccc3c(c2)C2(COC(N)=N2)C2(COC2)C2(CCC2)O3)c1` (centres unmarked) [RP 75, 6′-(5-methylpyridin-3-yl)trispiro[cyclobutane-1,2′-chromene-4′,4″-[1,3]oxazole-3′,3′″-oxetan]-2″-amine], the IC50 was 1100 nM.

As for `COc1cccnc1Nc1ccc2c(c1)C1(COC(N)=N1)C1(COC1)CO2` (centres unmarked) [RP 26], the IC50 came out at 69 nM.

For `N#C/C=C/c1cccc(-c2ccc3c(c2)C2(COC(N)=N2)C2(COC2)C2(CCC2)O3)c1` (centres unmarked) [RP 132], the IC50 amounted to 1200 nM.

For the compound `CC1(C)Oc2ccc(-c3cc(F)cnc3Cl)cc2C2(COC(N)=N2)C12COC2` (centres unmarked) [RP 153], the IC50 turned out to be 130 nM.

For `C#Cc1cncc(-c2ccc3c(c2)C2(COC(N)=N2)C2(COC2)CO3)c1` (centres unmarked) [RP 23], the IC50 stood at 900 nM.

Regarding `CCOc1cccc(-c2ccc3c(c2)C2(COC(N)=N2)C2(COC2)C(C)(C)O3)c1` (centres unmarked) [RP 144], the IC50 is 460 nM.

As for `COc1ccc(F)c(-c2ccc3c(c2)C2(COC(N)=N2)C2(COC2)C2(CCC2)O3)c1` (centres unmarked) [RP 136, 6′-(2-fluoro-5-methoxyphenyl)trispiro[cyclobutane-1,2′-chromene-4′,4″-[1,3]oxazole-3′,3′″-oxetan]-2″-amine], the IC50 turned out to be 660 nM.

Consider `CC1(C)Oc2ccc(-c3cc(Cl)cnc3Cl)cc2C2(COC(N)=N2)C12COC2` (centres unmarked) [RP 152], for which the IC50 was determined as 110 nM.

For the compound `CC1(C)Oc2ccc(-c3cccc(C(F)(F)F)c3)cc2C2(COC(N)=N2)C12COC2` (centres unmarked) [RP 141], the half-maximal inhibitory concentration (IC50) came to 1300 nM.

The target in the next series is hERG potassium channel (Homo sapiens (Human), UniProt Q12809). The series is described as follows: Test Example 5: hERG inhibition, automated patch clamp in hERG-expressing CHO cells. The conditions noted are these: read-out: Test Example 5 hERG IC50, QPatch, room temperature. For orientation: The hERG channel carries a current that helps repolarise heart muscle cells.
Chain of hERG potassium channel (Q12809 whole entry): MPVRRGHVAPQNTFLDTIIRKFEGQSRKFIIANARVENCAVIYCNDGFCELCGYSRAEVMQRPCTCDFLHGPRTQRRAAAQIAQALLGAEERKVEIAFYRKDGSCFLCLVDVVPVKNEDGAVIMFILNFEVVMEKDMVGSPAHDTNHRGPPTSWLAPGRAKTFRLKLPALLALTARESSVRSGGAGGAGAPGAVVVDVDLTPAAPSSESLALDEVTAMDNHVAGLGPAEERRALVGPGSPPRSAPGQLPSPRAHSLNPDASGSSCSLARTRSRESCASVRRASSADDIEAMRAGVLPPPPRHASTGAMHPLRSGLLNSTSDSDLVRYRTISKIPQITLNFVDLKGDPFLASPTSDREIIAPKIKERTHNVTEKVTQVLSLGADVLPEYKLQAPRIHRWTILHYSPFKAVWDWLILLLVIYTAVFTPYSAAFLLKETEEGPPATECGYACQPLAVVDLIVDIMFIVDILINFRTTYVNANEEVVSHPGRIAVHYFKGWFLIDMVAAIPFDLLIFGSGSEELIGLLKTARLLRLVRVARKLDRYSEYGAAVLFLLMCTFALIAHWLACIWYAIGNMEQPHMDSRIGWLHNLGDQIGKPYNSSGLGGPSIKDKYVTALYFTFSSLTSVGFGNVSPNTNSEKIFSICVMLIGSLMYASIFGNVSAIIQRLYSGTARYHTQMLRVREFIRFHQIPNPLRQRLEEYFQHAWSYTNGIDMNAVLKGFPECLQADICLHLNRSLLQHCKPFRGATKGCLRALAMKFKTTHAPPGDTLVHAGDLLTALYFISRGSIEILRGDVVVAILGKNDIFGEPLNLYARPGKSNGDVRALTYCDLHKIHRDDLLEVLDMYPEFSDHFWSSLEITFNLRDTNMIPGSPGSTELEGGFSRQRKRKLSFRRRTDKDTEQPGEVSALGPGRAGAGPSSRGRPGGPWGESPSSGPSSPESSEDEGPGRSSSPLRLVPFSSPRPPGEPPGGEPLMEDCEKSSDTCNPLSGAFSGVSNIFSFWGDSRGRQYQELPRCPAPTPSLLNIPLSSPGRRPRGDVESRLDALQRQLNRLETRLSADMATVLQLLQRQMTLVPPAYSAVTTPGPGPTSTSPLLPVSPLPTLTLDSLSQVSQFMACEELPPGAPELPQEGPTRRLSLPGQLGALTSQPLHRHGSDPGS
In the case of `CC1(C)Oc2ccc(NC(=O)c3ccc(C#N)cn3)cc2C2(COC(N)=N2)C12COC2` (centres unmarked) [Example 197], the IC50 was > 10 µM.
